Test results published in patent US20040142317A1, “Use of amino acid transporter atbo,+ as a delivery system for drugs and prodrugs” (priority 2003, published 2004).

Columns and labels:
Test in all cases: D-[3H]-serine transport in HRPE cells transfected with transporter cDNA
Assay type in all cases: cell-based
Details in all cases: D-[3H]-serine 5 μM
[1] = target: T1, system L1 (LAT1/4F2hc) (Homo sapiens, UniProt Q01650)
T1 construct: expressed in transfected cells; host or cells: HRPE cells
Procedure: (§1) Transport of D-[^3H]-serine (5 μM) was measured in HRPE cells transfected with cDNA of each transporter.
(§2) The present inventors evaluated the function of 10 different amino acid transporter clones with respect to transport of D-serine in heterologous expression systems (FIG. 11). All of these transporters are expressed in the intestinal tract. The list of the transporters tested include three energy-independent, heterodimeric facilitative transporters (L1, L2, and b^0,+), three subtypes of the Na^+-coupled system A (ATA1, ATA2, and ATA3), two subtypes of the Na^+- and H^+-coupled system N (SN1 and SN2), the Na^+-coupled system ATB^0, and the Na^+- and Cl^−-coupled system ATB^0,+. […] The ability to transport D-serine was the highest for the Na^+- and Cl^−-coupled transporter ATB^0,+. ATB^0,+ belongs to the gene family of neurotransmitter transporters whose transport function is energized by multiple driving forces, namely a Na^+ gradient, a Cl^− gradient, and membrane potential. […] Based on the energetics of these two transport systems, ATB^0,+ is expected to play the leading role in this process.

[2] = target: T2, b^0,+AT/rBAT (Mus musculus, UniProt Q9QXA6)
T2 construct: expressed in transfected cells; host or cells: HRPE cells
T2 sequence (Q9QXA6 1-487): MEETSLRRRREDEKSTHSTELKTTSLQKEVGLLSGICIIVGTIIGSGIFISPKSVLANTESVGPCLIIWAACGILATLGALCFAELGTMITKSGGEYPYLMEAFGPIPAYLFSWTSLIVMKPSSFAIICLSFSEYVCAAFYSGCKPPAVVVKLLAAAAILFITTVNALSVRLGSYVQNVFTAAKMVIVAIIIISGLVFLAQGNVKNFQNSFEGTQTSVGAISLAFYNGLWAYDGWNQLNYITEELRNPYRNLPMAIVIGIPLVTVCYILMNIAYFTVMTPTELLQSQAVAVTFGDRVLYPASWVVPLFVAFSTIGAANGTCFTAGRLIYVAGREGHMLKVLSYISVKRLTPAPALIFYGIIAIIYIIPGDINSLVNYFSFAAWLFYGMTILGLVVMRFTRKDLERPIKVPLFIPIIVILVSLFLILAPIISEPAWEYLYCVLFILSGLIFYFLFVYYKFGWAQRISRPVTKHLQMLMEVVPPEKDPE
Procedure: as §1, §2

[3] = target: T3, SN2 (Homo sapiens, UniProt Q8WUX1)
T3 construct: expressed in transfected cells; host or cells: HRPE cells
T3 sequence (Q8WUX1 whole entry, species assumed): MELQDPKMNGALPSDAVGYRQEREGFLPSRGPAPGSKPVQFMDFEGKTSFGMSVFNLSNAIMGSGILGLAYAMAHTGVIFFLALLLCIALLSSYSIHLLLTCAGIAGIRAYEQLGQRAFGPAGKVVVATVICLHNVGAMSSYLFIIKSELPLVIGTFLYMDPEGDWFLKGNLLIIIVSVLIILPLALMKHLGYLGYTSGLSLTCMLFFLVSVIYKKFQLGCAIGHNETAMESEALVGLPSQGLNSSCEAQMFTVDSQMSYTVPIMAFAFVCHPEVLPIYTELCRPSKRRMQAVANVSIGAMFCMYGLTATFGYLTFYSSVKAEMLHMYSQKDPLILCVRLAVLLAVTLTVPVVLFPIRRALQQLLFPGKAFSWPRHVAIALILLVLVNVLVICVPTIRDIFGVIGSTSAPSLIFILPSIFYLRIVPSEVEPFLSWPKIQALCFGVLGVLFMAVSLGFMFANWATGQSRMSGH
Procedure: as §1, §2

[4] = target: T4, ATA1 (Homo sapiens, UniProt Q9H2H9)
T4 construct: expressed in transfected cells; host or cells: HRPE cells
T4 sequence (Q9H2H9 1-487): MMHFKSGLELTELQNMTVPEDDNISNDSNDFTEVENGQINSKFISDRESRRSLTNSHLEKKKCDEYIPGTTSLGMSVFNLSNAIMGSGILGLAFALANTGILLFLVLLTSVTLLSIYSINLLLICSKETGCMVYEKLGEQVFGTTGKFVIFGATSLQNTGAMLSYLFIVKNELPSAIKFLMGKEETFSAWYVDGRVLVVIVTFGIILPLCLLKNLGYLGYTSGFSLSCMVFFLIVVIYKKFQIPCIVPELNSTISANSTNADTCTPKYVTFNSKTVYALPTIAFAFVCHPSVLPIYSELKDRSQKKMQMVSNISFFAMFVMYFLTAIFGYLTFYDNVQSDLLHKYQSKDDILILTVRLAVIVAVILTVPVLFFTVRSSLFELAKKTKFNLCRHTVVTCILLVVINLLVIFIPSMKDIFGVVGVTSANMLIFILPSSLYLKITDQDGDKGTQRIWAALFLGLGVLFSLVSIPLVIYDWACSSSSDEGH
Procedure: as §1, §2

[5] = target: T5, b^0,+ (b^0,+AT/4F2hc) (Mus musculus, UniProt Q9QXA6)
T5 construct: expressed in transfected cells; host or cells: HRPE cells
T5 sequence (Q9QXA6 1-487): T2 sequence (Q9QXA6 1-487)
Procedure: as §1, §2

[6] = target: T6, ATA3 (Homo sapiens, UniProt Q969I6)
T6 construct: expressed in transfected cells; host or cells: HRPE cells
T6 sequence (Q969I6 1-547): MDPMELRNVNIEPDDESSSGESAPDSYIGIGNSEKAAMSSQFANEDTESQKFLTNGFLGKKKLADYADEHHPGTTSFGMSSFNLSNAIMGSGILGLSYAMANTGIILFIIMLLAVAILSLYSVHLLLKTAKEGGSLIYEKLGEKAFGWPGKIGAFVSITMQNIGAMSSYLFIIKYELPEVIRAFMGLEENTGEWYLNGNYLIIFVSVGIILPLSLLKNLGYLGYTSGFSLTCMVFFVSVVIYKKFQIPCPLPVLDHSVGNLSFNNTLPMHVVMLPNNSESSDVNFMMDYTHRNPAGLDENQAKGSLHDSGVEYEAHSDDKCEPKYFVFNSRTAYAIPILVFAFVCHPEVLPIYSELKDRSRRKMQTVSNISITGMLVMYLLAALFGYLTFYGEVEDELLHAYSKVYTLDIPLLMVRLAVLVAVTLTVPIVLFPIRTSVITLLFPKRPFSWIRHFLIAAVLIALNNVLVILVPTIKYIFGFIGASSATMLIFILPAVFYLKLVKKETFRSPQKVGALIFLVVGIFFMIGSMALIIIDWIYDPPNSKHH
Procedure: as §1, §2

[7] = target: T7, ATB^0 (Homo sapiens, UniProt Q15758); design: expressed in transfected cells; host or cells: HRPE cells
T7 sequence (Q15758 1-541): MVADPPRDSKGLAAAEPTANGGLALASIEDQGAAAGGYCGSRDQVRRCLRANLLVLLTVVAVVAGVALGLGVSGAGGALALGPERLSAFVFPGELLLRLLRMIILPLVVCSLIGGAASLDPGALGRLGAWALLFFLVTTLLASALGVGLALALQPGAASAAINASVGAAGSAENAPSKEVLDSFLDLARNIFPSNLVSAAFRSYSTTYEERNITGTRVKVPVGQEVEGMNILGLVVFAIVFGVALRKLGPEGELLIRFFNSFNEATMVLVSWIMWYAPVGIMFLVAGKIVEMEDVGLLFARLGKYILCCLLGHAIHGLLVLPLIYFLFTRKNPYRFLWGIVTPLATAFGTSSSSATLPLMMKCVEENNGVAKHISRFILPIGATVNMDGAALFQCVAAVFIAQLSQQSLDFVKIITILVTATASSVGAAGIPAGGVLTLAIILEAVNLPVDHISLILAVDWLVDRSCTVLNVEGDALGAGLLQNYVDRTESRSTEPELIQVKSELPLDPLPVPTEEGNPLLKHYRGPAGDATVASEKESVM
Procedure: as §1, §2

T1 sequence (Q01650 whole entry, species assumed): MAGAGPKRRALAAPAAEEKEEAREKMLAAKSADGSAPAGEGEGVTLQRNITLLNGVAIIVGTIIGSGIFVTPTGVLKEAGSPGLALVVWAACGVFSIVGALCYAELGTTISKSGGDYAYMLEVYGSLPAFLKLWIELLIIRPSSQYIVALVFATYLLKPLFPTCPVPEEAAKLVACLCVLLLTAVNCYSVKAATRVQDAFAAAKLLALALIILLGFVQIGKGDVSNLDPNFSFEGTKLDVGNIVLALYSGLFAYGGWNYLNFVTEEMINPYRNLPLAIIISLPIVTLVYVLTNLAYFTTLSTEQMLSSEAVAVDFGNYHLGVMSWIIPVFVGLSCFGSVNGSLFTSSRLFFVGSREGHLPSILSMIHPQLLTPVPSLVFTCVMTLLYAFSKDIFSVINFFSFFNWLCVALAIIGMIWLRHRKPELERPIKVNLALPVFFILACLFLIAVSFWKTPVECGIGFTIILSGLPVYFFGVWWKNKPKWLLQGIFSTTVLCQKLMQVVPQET
T1 sequence (P08195 102-630 partner, species assumed): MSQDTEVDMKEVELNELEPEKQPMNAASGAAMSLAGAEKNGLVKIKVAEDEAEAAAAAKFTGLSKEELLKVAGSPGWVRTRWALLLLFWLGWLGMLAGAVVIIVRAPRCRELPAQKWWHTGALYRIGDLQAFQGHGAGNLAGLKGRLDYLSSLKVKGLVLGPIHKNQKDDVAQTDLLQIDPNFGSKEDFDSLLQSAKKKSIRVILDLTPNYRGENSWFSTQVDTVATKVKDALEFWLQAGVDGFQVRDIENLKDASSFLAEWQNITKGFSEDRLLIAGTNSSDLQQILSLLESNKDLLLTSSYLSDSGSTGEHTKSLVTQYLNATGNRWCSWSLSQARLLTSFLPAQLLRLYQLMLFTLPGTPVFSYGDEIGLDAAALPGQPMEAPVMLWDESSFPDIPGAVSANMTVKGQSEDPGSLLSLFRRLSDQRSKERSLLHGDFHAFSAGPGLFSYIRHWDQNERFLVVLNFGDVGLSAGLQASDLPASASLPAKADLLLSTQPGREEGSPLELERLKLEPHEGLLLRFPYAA

N[C@H](CO)C(=O)O [D-Serine, D-serine]
D-serine transport [1]: significant ability to transport
D-serine transport [2]: did not exhibit detectable D-serine transport activity
D-serine transport [3]: did not transport D-serine
D-serine transport [4]: showed D-serine transport activity
D-serine transport [5]: significant ability to transport
D-serine transport [6]: did not
D-serine transport [7]: able to transport D-serine to a marked extent
